Laboratory results reported in patent US20260200928A1, “THERAPEUTIC COMPOUNDS” (Sanofi, priority 2022, published 2026).

Target: T1, human IL-17A (Homo sapiens, UniProt Q16552)
T1 construct: purchased R&D Systems 7955-IL/CF
T1 sequence (Q16552 24-155): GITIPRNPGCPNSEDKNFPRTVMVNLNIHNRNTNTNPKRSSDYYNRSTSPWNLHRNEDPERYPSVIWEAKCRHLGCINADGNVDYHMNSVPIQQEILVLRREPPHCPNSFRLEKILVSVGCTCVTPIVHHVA
Assay: IL-17A AlphaLISA competition assay (block of IL-17A binding to its receptor IL-17RA)
Conditions: mean IC50 (n≥2), block of IL-17A binding to IL-17RA
Description: The ability of the compounds to block binding of IL-17A to its receptor, IL-17RA, was analysed in a competition assay using AlphaLISA technology (Perkin Elmer). The assay is a bead based AlphaLISA where the IL-17RA is captured on the acceptor bead via an Fc tag and IL-17A is captured on the streptavidin donor bead via a biotinylated anti-IL17A antibody.
Assay buffer was prepared by adding 0.05% Tween-20 (v/v) and 0.1% BSA to Phosphate Buffered Saline (PBS). The assay was carried out in 384-well white low volume plates (Perkin Elmer #6008359). 10 μL of a 7.5 nM stock of human recombinant IL-17A (R&D Systems 7955-IL/CF) diluted in assay buffer was dispensed into the assay plate and compounds or DMSO vehicle control were added in a volume of 75 nL using an acoustic dispenser (Beckman). The compounds were pre-incubated with the IL-17A for 30 min at room temperature prior to addition of 5 μL of a 5 nM stock of human recombinant IL-17RA/Fc chimera (R&D Systems 177-IR-100) diluted in assay buffer. The IL-17A was incubated with the receptor for a further 90 minutes at room temperature before addition of 5 μL of a mixture of anti-human Fc IgG acceptor beads (75 μg/mL, Perkin Elmer AL1030) and anti-IL-17A biotin conjugated antibody (5 nM, Abcam, #ab155575) in assay buffer. After a further 30 min incubation at room temperature, 5 μL of streptavidin donor beads (75 μg/mL, Perkin Elmer 6760002S) were added and the plate was incubated for 3 h in the dark.
The AlphaLisa signal was measured using the PheraSTAR plate reader (BMG). Data were analysed using GeneData Screener and fitted to a 4-parameter logistic equation. The IC50 values were calculated using the DMSO vehicle as the negative control and a high concentration (4 μM) of a reference IL-17A inhibitor as the positive control. All compounds were analysed at least in duplicate (n≥2).

Row | Compound | IC50 [nM]
1 | C[C@H](OC(C)(C)C)[C@H](NC(=O)c1nonc1C1CC1)C(=O)Nc1cc(CN2C[C@@H](C(F)(F)F)NC2=O)ccn1 [Example 116, N-((2S,3S)-3-(tert-butoxy)-1-oxo-1-((4-(((S)-2-oxo-4-(trifluoromethyl)-imidazolidin-1-yl)methyl)pyridin-2-yl)amino)butan-2-yl)-4-cyclopropyl-1,2,5-oxadiazole-3-carboxamide] | 15400
2 | N-((1S)-1-(4-chlorocyclohexyl)-2-((4-((S)-2-methoxy-1-((S)-2-oxo-4-(trifluoromethyl)imidazolidin-1-yl)ethyl)pyridin-2-yl)amino)-2-oxoethyl)-1-methyl-1H-pyrazole-5-carboxamide [Example 311] | 96
3 | CC(C)n1nccc1C(=O)N[C@H](C(=O)Nc1cc(CN2C[C@@H](C(F)(F)F)NC2=O)ccn1)[C@@H](C)OC(C)(C)C [Example 127, N-((2S,3R)-3-(tert-butoxy)-1-oxo-1-((4-(((S)-2-oxo-4-(trifluoromethyl)-imidazolidin-1-yl)methyl)-pyridin-2-yl)amino)butan-2-yl)-1-isopropyl-1H-pyrazole-5-carboxamide] | 440
4 | Cc1cnn(C)c1Cc1ccnc(NC(=O)[C@@H](NC(=O)OC(C)(C)C)[C@H]2CC[C@H](C)CC2)c1 [Example 51, tert-butyl ((S)-2-((4-((1,4-dimethyl-1H-pyrazol-5-yl)methyl)pyridin-2-yl)amino)-1-((1r,4S)-4-methylcyclohexyl)-2-oxoethyl)carbamate] | 2080
5 | Cn1nccc1C(=O)NC(C(=O)Nc1cc(Cc2ccc(=O)n(C)c2)ccn1)C1CCC(F)(F)CC1 (centres unmarked) [Example 52, N-(1-(4,4-difluorocyclohexyl)-2-((4-((1-methyl-6-oxo-1,6-dihydro-pyridin-3-yl)methyl)pyridin-2-yl)amino)-2-oxoethyl)-1-methyl-1H-pyrazole-5-carboxamide] | 23900
6 | CC(C)(C)OC(=O)N[C@H](C(=O)Nc1cc(C(NC(=O)CCC(F)(F)F)C2CC2)ccn1)[C@H]1CC[C@H](C)CC1 (single isomer, unassigned) [Example 73] | 1010
7 | CN1C[C@H]2[C@@H]([C@H]1C(=O)N[C@H](C(=O)Nc1cc(C(NC(=O)CCC(F)(F)F)C3CC3)ccn1)C(C1CC1)C1CC1)C2(C)C (single isomer, unassigned) [Example 56] | 7420
8 | Cc1cn([C@H](C)c2ccnc(NC(=O)[C@@H](NC(=O)c3nonc3C3CC3)C3CCC(F)(F)CC3)c2)c(=O)[nH]1 [Example 168, 4-Cyclopropyl-N—((S)-1-(4,4-difluorocyclohexyl)-2-((4-((R)-1-(4-methyl-2-oxo-2,3-dihydro-1H-imidazol-1-yl)ethyl)pyridin-2-yl)amino)-2-oxoethyl)-1,2,5-oxadiazole-3-carboxamide] | 5790
9 | Cc1nonc1C(=O)N[C@H](C(=O)Nc1cc(CN2C[C@@H](C(F)(F)F)NC2=O)ccn1)C(C1CC1)C1CC1 [Example 18, N-((S)-1,1-dicyclopropyl-3-oxo-3-((4-(((S)-2-oxo-4-(trifluoromethyl)imidazolidin-1-yl)methyl)pyridin-2-yl)amino)propan-2-yl)-4-methyl-1,2,5-oxadiazole-3-carboxamide] | 448
10 | 4-Cyclopropyl-N—((S)-1-((1r,4S)-4-methylcyclohexyl)-2-oxo-2-((5-(((S)-2-oxo-4-(trifluoromethyl)imidazolidin-1-yl)methyl)pyridin-3-yl)amino)ethyl)-1,2,5-oxadiazole-3-carboxamide and 4-Cyclopropyl-N—((R)-1-((1r,4R)-4-methylcyclo-hexyl)-2-oxo-2-((5-(((S)-2-oxo-4-(trifluoromethyl)imidazolidin-1-yl)methyl)pyridin-3-yl)amino)ethyl)-1,2,5-oxadiazole-3-carboxamide [Example 84] | 373

Results, then the compound that gave them:

Row | IC50 [nM] | Compound
11 | 30 | CC(C)n1nccc1C(=O)N[C@H](C(=O)Nc1cc(C(NC(=O)CCC(F)(F)F)C2CC2)ccn1)C1CCC(F)(F)CC1 (stereo partly drawn) [Example 110, N-((1S)-2-((4-(cyclopropyl(4,4,4-trifluorobutanamido)methyl)pyridin-2-yl)amino)-1-(4,4-difluorocyclohexyl)-2-oxoethyl)-1-isopropyl-1H-pyrazole-5-carboxamide]
12 | 141 | O=C(N[C@H](C(=O)Nc1cc(CN2C[C@@H](C(F)(F)F)NC2=O)ccn1)C1CCC(F)(F)CC1)c1nonc1C1CC1 [Example 8, 4-cyclopropyl-N-((S)-1-(4,4-difluorocyclohexyl)-2-oxo-2-((4-(((S)-2-oxo-4-(trifluoromethyl)imidazolidin-1-yl)methyl)pyridin-2-yl)amino)ethyl)-1,2,5-oxadiazole-3-carboxamide]
13 | 48 | CCc1nonc1C(=O)N[C@H](C(=O)Nc1cc(C[C@H]2C[C@@H](C(F)(F)F)NC2=O)ccn1)C1CCC(F)(F)CC1 [Example 220, N-((S)-1-(4,4-difluorocyclohexyl)-2-oxo-2-((4-(((3S,5S)-2-oxo-5-(trifluoromethyl)pyrrolidin-3-yl)methyl)pyridin-2-yl)amino)ethyl)-4-ethyl-1,2,5-oxadiazole-3-carboxamide]
14 | 6 | CCC(c1ccnc(NC(=O)C(NC(=O)c2ccnn2C)C2CCC(C)CC2)c1)N1CC(C(F)(F)F)NC1=O [Example 259, 1-methyl-N-((S)-1-((1r,4S)-4-methylcyclohexyl)-2-oxo-2-((4-((R)-1-((S)-2-oxo-4-(trifluoromethyl)imidazolidin-1-yl)propyl)pyridin-2-yl)amino)ethyl)-1H-pyrazole-5-carboxamide]
15 | 31 | COC[C@H](c1ccnc(NC(=O)[C@H](COC(C)(C)C(F)(F)F)NC(=O)c2nonc2C)c1)N1C[C@@H](C(F)(F)F)NC1=O [Example 268, N-((S)-1-((4-((S)-2-methoxy-1-((S)-2-oxo-4-(trifluoromethyl)imidazolidin-1-yl)ethyl)pyridin-2-yl)amino)-1-oxo-3-((1,1,1-trifluoro-2-methylpropan-2-yl)oxy)propan-2-yl)-4-methyl-1,2,5-oxadiazole-3-carboxamide]
16 | 222 | CC(C)n1nccc1C(=O)N[C@H](C(=O)Nc1cc([C@@H](C)NC(=O)CCC(F)(F)F)ccn1)C1CCC(F)(F)CC1 [Example 167, N—((S)-1-(4,4-difluorocyclohexyl)-2-oxo-2-((4-((R)-1-(4,4,4-trifluoro-butanamido)ethyl)pyridin-2-yl)amino)ethyl)-1-isopropyl-1H-pyrazole-5-carboxamide]
17 | 57 | CCc1oncc1C(=O)NC(C(=O)Nc1cc([C@@H](COC)N2CC(F)(F)CNC2=O)ccn1)C1CCC(F)(F)CC1 (stereo in doubt) [Example 176, N—((S)-2-((4-((S)-1-(5,5-difluoro-2-oxotetrahydropyrimidin-1(2H)-yl)-2-methoxyethyl)pyridin-2-yl)amino)-1-(4,4-difluorocyclohexyl)-2-oxoethyl)-5-ethylisoxazole-4-carboxamide]
18 | 33 | CCn1nccc1C(=O)N[C@H](C(=O)Nc1cc(C(NC(=O)CCC(F)(F)F)C2CC2)ccn1)C1CCC(F)(F)CC1 (stereo partly drawn) [Example 108, N-((1S)-2-((4-(cyclopropyl(4,4,4-trifluorobutanamido)methyl)pyridin-2-yl)amino)-1-(4,4-difluorocyclohexyl)-2-oxoethyl)-1-ethyl-1H-pyrazole-5-carboxamide]
19 | 137 | CCc1nocc1C(=O)NC(C(=O)Nc1cc(CC2=C[C@@H](C(F)(F)F)NC2=O)ccn1)C1CCC(F)(F)CC1 (stereo in doubt) [Example 216, N-((1S)-1-(4,4-difluorocyclohexyl)-2-oxo-2-((4-((2-oxo-5-(trifluoromethyl)-2,5-dihydro-1H-pyrrol-3-yl)methyl)pyridin-2-yl)amino)ethyl)-3-ethylisoxazole-4-carboxamide]
20 | 47 | COC[C@H](c1ccnc(NC(=O)C(NC(=O)c2nonc2C)C2CCC(F)CC2)c1)N1C[C@@H](C(F)(F)F)NC1=O (single isomer, unassigned) [Example 287]
21 | 83 | CCn1nccc1C(=O)N[C@H](C(=O)Nc1cc([C@@H](COC)N2CC(F)(F)CNC2=O)ccn1)C1CCC(F)(F)CC1 [Example 179, N-((S)-2-((4-((S)-1-(5,5-difluoro-2-oxotetrahydropyrimidin-1(2H)-yl)-2-methoxyethyl)pyridin-2-yl)amino)-1-(4,4-difluorocyclohexyl)-2-oxoethyl)-1-ethyl-1H-pyrazole-5-carboxamide]
22 | 74 | CCn1nccc1C(=O)N[C@H](C(=O)Nc1cc([C@@H](COC)N2C[C@@H](C(F)(F)F)NC2=O)ccn1)[C@H]1CCCC(F)(F)C1 (single isomer, unassigned) [Example 308]
23 | 136 | C[C@H]1CC[C@H]([C@H](NC(=O)c2ccnn2CCC(O)C(F)(F)F)C(=O)Nc2cc(CN3C[C@@H](C(F)(F)F)NC3=O)ccn2)CC1 (single isomer, unassigned) [Example 68]
